Experimental data from patent publication EP3613735A1, “NOVEL SIRT 1 ACTIVATOR AND MEDICINAL USE THEREOF” (Pusan National University Industry - University Cooperation …, priority 2017, dated 2018).

What was measured:
Assay type in all cases: cell-based
skin fibroblasts = assay: β-galactosidase staining of UVB-induced cell aging; settings: UVB of 10 mJ/cm^2; pretreated at 10 µM for 24 hours
Description: β-galactosidase is used to induce cellular aging of fibroblasts, which are the main cells of the epidermal layer of skin, by using UVB, the most important environmental factor in skin aging, as the most common marker for cell aging and β-galactosidase staining was performed to analyze the cell aging protection of Compound 32u. […]

PPARβ/δ [1] = biological target: T1, PPARβ/δ (Homo sapiens, UniProt Q03181); assay: PPAR response element (PPRE)-luciferase assay in fibroblasts; settings: fibroblasts overexpressing PPARβ/δ; compared with GW501516
T1 construct: endogenous in cells
T1 sequence (Q03181 1-441): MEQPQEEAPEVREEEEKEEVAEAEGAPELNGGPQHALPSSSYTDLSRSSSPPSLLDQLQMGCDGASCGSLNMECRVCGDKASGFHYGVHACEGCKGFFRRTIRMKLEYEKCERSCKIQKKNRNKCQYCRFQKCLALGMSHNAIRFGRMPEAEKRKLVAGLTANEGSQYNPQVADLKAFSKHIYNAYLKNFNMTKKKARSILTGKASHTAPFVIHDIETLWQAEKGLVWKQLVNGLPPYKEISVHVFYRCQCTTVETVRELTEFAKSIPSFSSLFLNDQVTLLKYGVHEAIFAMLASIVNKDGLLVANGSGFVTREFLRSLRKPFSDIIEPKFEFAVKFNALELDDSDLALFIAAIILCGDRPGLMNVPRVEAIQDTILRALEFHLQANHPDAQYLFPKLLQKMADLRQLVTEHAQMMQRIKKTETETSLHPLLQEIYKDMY
Description: Next, to analyze the effect of PPARβ/δ activity of Compound 69c, a PPAR response element (PPRE)-luciferase assay was performed on fibroblasts, which are the main cells of the skin epithelial layer. A binding site region of PPARβ/δ, i.e. plasmids in which the PPRE region was bound upstream of the luciferase gene were transfected by treating the cells with lipofectamine. Through this process, DNA is surrounded by lipofectamine, making it easier to pass the cell membrane. In addition, it is possible to identify which of the PPAR subtypes is effective by overexpressing PPARβ/δ in addition to the endogenous PPAR subtype. 18 to 24 hours after transduction, at least 5 hours after treatment with the candidate compound, fluorescence was measured by addition of the substrate of the luciferase assay system. Luciferase expression amount can be analyzed by the fluorescence value, and the activity level of PPARβ/δ can be analyzed through the above results.

PPARβ/δ [2] = biological target: T1, PPARβ/δ; assay: PPARβ/δ transfer into the nucleus, western blot; settings: 1 hour and 30 minutes after treating cells
SIRT 1 = SIRT 1 expression, real-time PCR and western blot
Description: To confirm whether Compound 69c increases the expression of SIRT 1 through the activation of PPARβ/δ, real-time PCR and western blot were performed.

p53 = assay: Acetylation of p53 increased by UVB
Description: Furthermore, SIRT 1 is known to exert its function through deacetylation of various substrate proteins.

[3] = test system: reactive oxygen species (ROS); assay: Reactive oxygen species with DCF-DA fluorescent dye
pro-collagen = assay: Pro-collagen expression in UVB photoaging of skin fibroblasts, Western blotting; settings: skin fibroblasts pretreated with 10 µM one hour before 8 mJ/cm^2 UVB; after 6 hours
Description: First, the effect of Compound 69c on pro-collagen expression by cell photoaging was analyzed. A collagen reduction model by UVB was constructed using skin fibroblasts to perform the experiments. Skin fibroblasts were pretreated with 10 µM Compound 69c one hour ago and irradiated with 8 mJ/cm^2 of UVB. After 6 hours, the cells were lysed and the expression of pro-collagen was confirmed via Western blotting.

MMP1 = MMP1 expression in UVB photoaging of skin fibroblasts, Western blotting; settings: skin fibroblasts pretreated with 10 µM 1 hour before 8 mJ/cm^2 UVB; after 6 hours
Description: (§1) Based on this, in order to confirm the effect of Compound 69c on the expression level of intracellular MMPs, 10 µM of Compound 69c was pretreated 1 hour prior to skin fibroblasts and irradiated with UVB of 8 mJ/cm^2. After 6 hours, cells were lysed and the expression levels of MMP1 and MMP13 were confirmed by Western blotting.

MMP13 = MMP13 expression in UVB photoaging of skin fibroblasts, Western blotting; settings: skin fibroblasts pretreated with 10 µM 1 hour before 8 mJ/cm^2 UVB; after 6 hours
Description: as §1

In the case of `CN1CCN(Cc2ccc3oc(-c4ccccc4NC(=O)c4ccc5ccccc5c4)nc3c2)CC1` [Compound 69c, N-(2-(5-((4-Methylpiperazin-1-yl)methyl)benzo[d]oxazol-2-yl)phenyl)-2-naphthamide], the β-galactosidase staining (skin fibroblasts) is reported as “reduced”, the “PPARβ/δ activity (PPRE-luciferase)” value (PPARβ/δ [1]) is reported as “higher PPARβ/δ activity than GW501516” and the “PPARβ/δ transfer in the nucleus” value (PPARβ/δ [2]) is reported as “increase in PPARβ/δ transfer in the nucleus”. The “mRNA expression level of SIRT 1” value (SIRT 1; real-time PCR) was “increased”, the “protein expression level of SIRT 1” value (SIRT 1; western blot) was “increased” and the “acetylation of p53” value (p53) was “inhibited acetylation of p53 increased by UVB”. For the same compound, the “reactive oxygen species induced by UVB” value [3] was “inhibited”, the expression of pro-collagen (pro-collagen) was “increased” and the “expression of MMP1” value (MMP1) was “reduced”. For the same compound, the “expression of MMP13” value (MMP13) was “reduced”.
